Laboratory results published in ChEMBL document CHEMBL1144358, “LEA3D: a computer-aided ligand design for structure-based drug design” (J Med Chem, 2005).
pKi: −log10 of the molar value.

molecular target: T1, Thymidylate kinase (Mycobacterium tuberculosis, UniProt P9WKE1); experiment: Binding affinity towards mycobacterium tuberculosis thymidine monophosphate kinase; NI=No inhibition
T1 sequence (P9WKE1 whole entry): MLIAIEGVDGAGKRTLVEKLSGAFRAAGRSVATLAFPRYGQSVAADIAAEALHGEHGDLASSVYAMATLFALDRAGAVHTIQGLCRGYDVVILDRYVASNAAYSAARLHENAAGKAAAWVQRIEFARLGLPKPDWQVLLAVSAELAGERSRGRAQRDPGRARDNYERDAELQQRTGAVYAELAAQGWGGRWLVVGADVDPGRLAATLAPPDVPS

Q: Which Ki does the source give for `Cc1cn(Cc2ccc(CCC#N)cc2)c(=O)[nH]c1=O` here?
A: Not Active

Q: `O=c1[nH]c(=O)n(Cc2ccccc2)cc1F` was tested. Which Ki did it give?
A: Not Active

Q: For `Cc1cn(Cc2ccc(/C=C/C(=O)O)cc2)c(=O)[nH]c1=O`, which Ki is on record?
A: Not Active

Q: For `Cc1cn(Cc2ccc(/C=C/C#N)cc2)c(=O)[nH]c1=O`, which Ki is on record?
A: Not Active

Q: `CCOC(=O)/C=C/c1ccc(Cn2cc(C)c(=O)[nH]c2=O)cc1` was tested. Which Ki did it give?
A: Not Active

molecular target: T1, Thymidylate kinase; experiment: Binding affinity towards mycobacterium tuberculosis thymidine monophosphate kinase

Q: `O=C(O)CCCc1ccc(Cn2cc(Br)c(=O)[nH]c2=O)cc1` was tested. Which pKi did it give?
A: 4.91
